Assays:
Strep/HA SLC9A5 = target: T1, Strep/HA SLC9A5 (Homo sapiens, UniProt Q14940); assay: Selectivity across SLC9 family: degradation of exogenous Strep/HA SLC9A5; assay type: cell-based; settings: HAP1; 250 or 750 nM; 16 hours
T1 construct: expressed in transfected cells; host or cells: HAP1 (lentiviral, pRRL Strep-HA; cDNA synthesized by Genescript)
Procedure: (§1) (E) Selectivity of d9A1-2 was tested across HAP1 cell lines expressing Strep/HASLC9A1, 9A4, 9A5, 9A8, 9A2, 9B2, 9A6, 9A9, and 9A3. Cells were treated with varying concentrations of d9A1-2 for 16 hours, after which degradation of the exogenous SLCs was monitored.
(§2) SLC1A5, SLC2A1, SLC2A3, SLC16A1, SLC38A1, SLC38A2 were obtained as gateway-compatible pENTR/pDONR vectors from the Harvard PlasmID Repository. SLC39A7 was obtained from Dharmacon, GE Healthcare. The following vectors were synthesized by Genescript: SLC4A4, SLC7A3, SLC38A9, SLC25A1, SLC9A1, SLC9A2, SLC9A3, SLC9A4, SLC9A5, SLC9A6, SLC9A7, SLC9A8, and SLC9B2. SLC30A9, SLC33A1, SLC35B2, SLC25A26, and MTCH2 were a gift from the RESOLUTE consortium. cDNAs were transferred into gateway-compatible lentiviral expression vectors: pLX305 dTAG vectors (Addgene #91797/8) or pRRL Strep-HA (described previously43, EF1a promotor driven expression) using LR recombination (ThermoFisher Scientific). […]
(§3) For immunoblotting, whole cell extracts were prepared using RIPA lysis buffer (25 mM Tris/HCl pH 7.6, 150 mM NaCl, 1% NP-40, 1% sodium deoxycholate, 0.1% SDS, EDTA-free protease inhibitor (Roche) and phosphatase inhibitors 2+3 (Sigma- Aldrich)). […] Protein extracts were quantified and normalized using the BCA assay (Thermo Scientific). […]

[1] = test system: Peripheral blood mononuclear cells (PBMCs); assay: Cell viability assay (CellTiter-Glo), single dose, FIG. 10; assay type: cell-based, human; settings: patient samples; 75 nM d9A1-2 vs 7.5 µM EIPA; 72 hours
Procedure: FIG. 10: Viability assay Relative viability of Peripheral blood mononuclear cells (PBMCs) after single-dose treatment with the d9A1-2 molecule or ethyl-isopropyl amiloride (EIPA). PBMCs were isolated from healthy donors and patients with acute myeloid leukemia, multiple myeloma, B cell lymphoma and Hodgkin’s lymphoma, chronic lymphocytic leukeumia. Viability was assayed using the CellTiter-Glo assay, 72 hours post treatment.
Peripheral blood mononuclear cells (PBMCs) were isolated using Lymphoprep (Stem Cell Technologies) from healthy donors and patients with acute myeloid leukemia, multiple myeloma, B cell lymphoma, Hodgkin’s lymphoma, chronic lymphocytic leukeumia. For comparison of different samples, compounds were transferred on black 384-well plates using an acoustic liquid handler (Echo, Labcyte).
Cells were seeded in these plates at densities of 20,000 cells per well in RPMI media (Gibco), supplemented with 10% fetal calf serum (Gibco). Viability was measured after 72 hours using the CellTiter-Glo assay (Promega) on a plate reader (SpectraMax i3x, Molecular Probes). All measurements were done in technical quadruplicates. Toxicity achieved by treatment with d9A1-2 or ethyl-isopropyl amiloride (EIPA) (Sigma) was normalized to the reference controls. Dose response fitting curves were obtained and plotted using GraphPad Prism V8. Data is presented as mean +/- SD.

Strep/HA SLC9A1 = target: T2, Strep/HA SLC9A1 (Homo sapiens, UniProt P19634); assay: Selectivity across SLC9 family: degradation of exogenous Strep/HA SLC9A1; assay type: cell-based; settings: HAP1; 250 or 750 nM; 16 hours
T2 construct: expressed in transfected cells; host or cells: HAP1 (lentiviral, pRRL Strep-HA; cDNA synthesized by Genescript)
T2 sequence (P19634 whole entry): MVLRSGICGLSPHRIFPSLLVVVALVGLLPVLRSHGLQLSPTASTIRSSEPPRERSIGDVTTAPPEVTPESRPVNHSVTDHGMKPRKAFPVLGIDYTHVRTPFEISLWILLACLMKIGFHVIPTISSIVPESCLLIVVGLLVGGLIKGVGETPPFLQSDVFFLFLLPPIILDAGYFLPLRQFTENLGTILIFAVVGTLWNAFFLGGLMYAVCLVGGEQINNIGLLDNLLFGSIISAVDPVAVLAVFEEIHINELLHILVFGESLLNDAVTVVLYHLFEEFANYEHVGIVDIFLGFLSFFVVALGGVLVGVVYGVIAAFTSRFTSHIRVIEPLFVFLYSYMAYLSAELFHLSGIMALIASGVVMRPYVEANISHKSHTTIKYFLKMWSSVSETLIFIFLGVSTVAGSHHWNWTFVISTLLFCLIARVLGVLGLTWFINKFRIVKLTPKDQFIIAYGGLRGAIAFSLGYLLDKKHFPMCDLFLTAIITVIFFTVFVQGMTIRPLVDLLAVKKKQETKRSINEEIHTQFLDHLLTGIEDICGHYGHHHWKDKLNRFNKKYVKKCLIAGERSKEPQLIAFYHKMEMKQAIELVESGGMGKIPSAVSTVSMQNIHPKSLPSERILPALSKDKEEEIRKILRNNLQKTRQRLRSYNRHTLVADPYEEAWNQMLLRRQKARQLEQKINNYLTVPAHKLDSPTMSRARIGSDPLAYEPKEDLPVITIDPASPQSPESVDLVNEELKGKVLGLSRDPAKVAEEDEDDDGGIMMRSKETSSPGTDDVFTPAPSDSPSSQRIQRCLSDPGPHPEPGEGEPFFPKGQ
Procedure: as §1, §2, §3

dTAG-HA SLC2A1 = target: T3, dTAG-HA SLC2A1 (Homo sapiens, UniProt P11166+Q96SW2); assay: Targeted degradation of dTAG-tagged SLC2A1 (western blot); assay type: cell-based; settings: HAP1, 0.5 µM, 24, 48 or 72 hours
T3 construct: expressed in transfected cells
T3 sequence (P11166 with tags, fused parts or gaps): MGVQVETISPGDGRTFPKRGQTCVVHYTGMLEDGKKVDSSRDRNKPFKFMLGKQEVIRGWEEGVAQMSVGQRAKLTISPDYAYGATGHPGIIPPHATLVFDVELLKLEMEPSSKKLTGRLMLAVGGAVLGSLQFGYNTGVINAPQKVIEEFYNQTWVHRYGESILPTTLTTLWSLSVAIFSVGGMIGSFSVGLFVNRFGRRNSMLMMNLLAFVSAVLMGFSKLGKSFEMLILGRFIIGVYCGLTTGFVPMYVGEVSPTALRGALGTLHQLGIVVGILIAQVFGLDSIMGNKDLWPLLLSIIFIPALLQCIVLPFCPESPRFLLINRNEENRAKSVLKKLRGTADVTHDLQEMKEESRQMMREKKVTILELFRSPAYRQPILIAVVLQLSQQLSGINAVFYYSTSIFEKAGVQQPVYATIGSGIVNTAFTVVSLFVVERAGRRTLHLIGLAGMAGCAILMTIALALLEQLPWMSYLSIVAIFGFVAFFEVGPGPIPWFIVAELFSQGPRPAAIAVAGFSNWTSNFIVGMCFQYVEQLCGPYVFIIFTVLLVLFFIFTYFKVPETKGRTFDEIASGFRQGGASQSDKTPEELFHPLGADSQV
T3 sequence (Q96SW2 whole entry): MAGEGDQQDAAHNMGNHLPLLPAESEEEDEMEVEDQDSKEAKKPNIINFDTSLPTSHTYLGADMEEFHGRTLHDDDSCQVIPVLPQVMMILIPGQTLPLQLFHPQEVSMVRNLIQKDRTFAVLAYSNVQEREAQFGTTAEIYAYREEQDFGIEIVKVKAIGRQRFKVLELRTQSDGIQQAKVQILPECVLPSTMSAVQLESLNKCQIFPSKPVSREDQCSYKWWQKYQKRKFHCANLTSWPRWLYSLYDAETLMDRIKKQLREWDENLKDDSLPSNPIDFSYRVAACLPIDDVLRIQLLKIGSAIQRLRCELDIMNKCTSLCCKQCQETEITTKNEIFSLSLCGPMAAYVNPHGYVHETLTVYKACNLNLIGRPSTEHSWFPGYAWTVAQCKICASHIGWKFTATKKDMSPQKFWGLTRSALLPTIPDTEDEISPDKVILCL
T3 sequence (Q16531 whole entry partner): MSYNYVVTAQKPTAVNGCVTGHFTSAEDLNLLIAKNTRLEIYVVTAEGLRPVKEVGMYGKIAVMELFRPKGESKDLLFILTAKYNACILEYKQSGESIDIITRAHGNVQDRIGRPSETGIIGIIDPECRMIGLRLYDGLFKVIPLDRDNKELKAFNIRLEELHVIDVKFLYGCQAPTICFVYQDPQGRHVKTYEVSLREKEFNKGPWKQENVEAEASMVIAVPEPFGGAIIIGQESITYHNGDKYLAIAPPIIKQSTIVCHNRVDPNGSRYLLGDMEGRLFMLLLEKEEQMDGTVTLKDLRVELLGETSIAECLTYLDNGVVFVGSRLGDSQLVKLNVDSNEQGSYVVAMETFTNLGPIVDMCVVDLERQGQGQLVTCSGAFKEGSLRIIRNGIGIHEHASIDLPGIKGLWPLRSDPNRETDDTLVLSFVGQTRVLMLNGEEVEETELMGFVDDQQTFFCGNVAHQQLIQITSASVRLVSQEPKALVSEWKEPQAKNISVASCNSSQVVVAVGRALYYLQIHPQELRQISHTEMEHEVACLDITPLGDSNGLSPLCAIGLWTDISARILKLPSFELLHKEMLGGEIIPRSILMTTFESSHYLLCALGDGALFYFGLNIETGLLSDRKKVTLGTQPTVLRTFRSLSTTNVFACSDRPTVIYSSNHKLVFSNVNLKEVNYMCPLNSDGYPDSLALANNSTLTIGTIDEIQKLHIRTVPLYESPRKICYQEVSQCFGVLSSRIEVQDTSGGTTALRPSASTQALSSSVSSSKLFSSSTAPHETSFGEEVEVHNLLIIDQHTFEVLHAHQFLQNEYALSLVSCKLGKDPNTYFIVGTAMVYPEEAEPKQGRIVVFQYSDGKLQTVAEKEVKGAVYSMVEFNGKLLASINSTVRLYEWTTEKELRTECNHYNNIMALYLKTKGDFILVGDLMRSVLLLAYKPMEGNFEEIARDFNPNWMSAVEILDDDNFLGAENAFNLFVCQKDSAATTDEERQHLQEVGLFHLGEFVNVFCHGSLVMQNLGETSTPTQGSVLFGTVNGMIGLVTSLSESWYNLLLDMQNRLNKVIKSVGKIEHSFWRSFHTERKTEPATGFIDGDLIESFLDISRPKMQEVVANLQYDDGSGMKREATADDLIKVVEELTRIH
Procedure: (§4) (C)HAP1 cells expressing dTAG-HA SLC1A5, 2A3, 30A9, 35B2, MTCH2, and 33A1 were treated for 24 hours with 0.5 µM of dTAG7 or dTAG13, as indicated. HAP1 cells expressing dTAG-HA SLC2A1 and 16A1 were treated for 24 hrs with 0.5 µM of dTAG7. HAP1 cell lines expressing dTAG-HA SLC39A7, dTAG-HA SLC4A4, and SLC7A3-dTAG-HA were treated for 48 hrs with 0.5 µM of dTAG13.
(§5) SLC1A5, SLC2A1, SLC2A3, SLC16A1, SLC38A1, SLC38A2 were obtained as gateway-compatible pENTR/pDONR vectors from the Harvard PlasmID Repository. SLC39A7 was obtained from Dharmacon, GE Healthcare. The following vectors were synthesized by Genescript: SLC4A4, SLC7A3, SLC38A9, SLC25A1, SLC9A1, SLC9A2, SLC9A3, SLC9A4, SLC9A5, SLC9A6, SLC9A7, SLC9A8, and SLC9B2. […]
as §3
(§6) SLCs were ectopically expressed as fusions to a mutated FKBP domain, also known as the dTAG system. […]

dTAG-HA SLC33A1 = target: T4, dTAG-HA SLC33A1 (Homo sapiens, UniProt O00400+Q96SW2); assay: Targeted degradation of dTAG-tagged SLC33A1 (western blot); assay type: cell-based; settings: HAP1, 0.5 µM
T4 construct: expressed in transfected cells
T4 sequence (O00400 with tags, fused parts or gaps): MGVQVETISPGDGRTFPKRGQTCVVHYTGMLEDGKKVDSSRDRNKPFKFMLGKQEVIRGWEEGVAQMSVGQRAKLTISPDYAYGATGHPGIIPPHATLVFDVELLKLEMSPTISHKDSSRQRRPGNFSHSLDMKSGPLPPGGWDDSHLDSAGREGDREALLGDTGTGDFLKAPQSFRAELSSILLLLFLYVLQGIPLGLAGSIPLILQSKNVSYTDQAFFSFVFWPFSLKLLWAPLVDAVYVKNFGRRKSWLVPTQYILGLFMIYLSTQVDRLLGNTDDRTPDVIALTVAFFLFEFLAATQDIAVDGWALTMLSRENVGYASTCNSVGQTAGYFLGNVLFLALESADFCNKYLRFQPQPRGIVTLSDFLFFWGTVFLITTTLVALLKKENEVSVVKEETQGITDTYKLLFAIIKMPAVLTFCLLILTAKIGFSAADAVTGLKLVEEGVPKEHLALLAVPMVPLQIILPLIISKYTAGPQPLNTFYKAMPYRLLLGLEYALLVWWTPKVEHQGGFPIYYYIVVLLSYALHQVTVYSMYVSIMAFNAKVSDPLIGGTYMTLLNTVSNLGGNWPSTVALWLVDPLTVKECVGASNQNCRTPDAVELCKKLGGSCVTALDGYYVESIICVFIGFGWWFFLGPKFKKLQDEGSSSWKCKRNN
T4 sequence (Q96SW2 whole entry): as the sequence (Q96SW2 whole entry) above
T4 sequence (Q16531 whole entry partner): as the sequence (Q16531 whole entry partner) above
Procedure: as §4, §5, §3, §6

T1 sequence (Q14940 whole entry): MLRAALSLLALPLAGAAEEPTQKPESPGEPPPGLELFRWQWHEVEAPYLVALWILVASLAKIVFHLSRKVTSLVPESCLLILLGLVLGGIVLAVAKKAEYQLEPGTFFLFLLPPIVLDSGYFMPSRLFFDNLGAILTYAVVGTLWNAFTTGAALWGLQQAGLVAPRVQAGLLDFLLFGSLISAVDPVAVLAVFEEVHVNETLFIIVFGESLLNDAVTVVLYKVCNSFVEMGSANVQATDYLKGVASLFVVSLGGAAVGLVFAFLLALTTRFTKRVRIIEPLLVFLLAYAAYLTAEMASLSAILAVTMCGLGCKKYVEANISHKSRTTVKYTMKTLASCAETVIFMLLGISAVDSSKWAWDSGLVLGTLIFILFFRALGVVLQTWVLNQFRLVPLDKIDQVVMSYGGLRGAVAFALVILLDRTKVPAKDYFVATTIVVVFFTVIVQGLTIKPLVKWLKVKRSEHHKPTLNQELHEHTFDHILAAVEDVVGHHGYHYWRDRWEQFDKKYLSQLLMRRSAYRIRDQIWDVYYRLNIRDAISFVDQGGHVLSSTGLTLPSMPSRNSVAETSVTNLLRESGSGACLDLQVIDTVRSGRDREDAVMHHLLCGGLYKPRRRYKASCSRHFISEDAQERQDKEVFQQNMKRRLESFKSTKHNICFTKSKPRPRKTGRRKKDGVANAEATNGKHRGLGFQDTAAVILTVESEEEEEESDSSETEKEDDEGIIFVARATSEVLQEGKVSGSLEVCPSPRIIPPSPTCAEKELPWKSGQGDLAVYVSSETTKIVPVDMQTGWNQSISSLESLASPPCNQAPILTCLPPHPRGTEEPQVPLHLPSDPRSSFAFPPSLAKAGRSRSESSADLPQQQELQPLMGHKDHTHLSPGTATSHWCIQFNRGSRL

Cc1cc(-c2ccc(C(=O)NCCOCCOCCOCCOCCNc3cccc4c3C(=O)N(C3CCC(=O)NC3=O)C4=O)cc2N2CCC(c3[nH]cnc3C)CC2)ccc1F (centres unmarked) [d9A1-2]
abundance of exogenous SLC9A5 (Strep/HA SLC9A5): not significantly affected
toxicity (relative viability) in patient PBMCs compared with EIPA [1]: considerably more toxic than 7.5 µM EIPA
degradation of exogenous SLC9A1 (Strep/HA SLC9A1): most efficient degradation

CC[C@H](C(=O)N1CCCC[C@H]1C(=O)O[C@H](CCc1ccc(OC)c(OC)c1)c1ccccc1OCC(=O)NCCCOCCOCCOCCCNC(=O)COc1cccc2c1C(=O)N(C1CCC(=O)NC1=O)C2=O)c1cc(OC)c(OC)c(OC)c1 (some centres unmarked) [dTAG7]
reversibility of degradation of the target SLC (dTAG-HA SLC2A1): reversible degradation
initiation of degradation (time course) (dTAG-HA SLC33A1): ≤ 6 h
